Four molecules from patent US8263526B2, “Compositions of keratin hydrolysate and microbes for pest control applications” (priority 2006, dated 2012) can be followed below.

Like-named read-outs stand apart in the source and are kept apart here.

Holding throughout (format): cell-based
Data set [1] deals with blastospores of Paecilomyces fumosoroseus ARSEF 3581. The data set is described as follows: % germination assay (6-hr) of blastospores in surfactant solutions. The procedure: (§1) Blastospore suspensions (˜1×10^8 blastospores/ml) were prepared by adding 1.3 g of the dried blastospores of P. fumosoroseus formulate to 100 ml sterile deionized water. The spore suspension was stirred for 30 minutes, and then allowed to stand 1 minute to allow the diatomaceous earth to settle. Without disturbing the diatomaceous earth, 30 ml of the spore suspension was removed and transferred to a sterile bottle. The blastospore concentration of the suspension was measured using a hemacytometer.
A one ml aliquot of the previously described blastospore suspension was added to 49 ml of the foaming agents in a 250 ml baffled Erlenmeyer flask. The blastospore suspensions were incubated in a rotary shaker incubator (Innova 4000, New Brunswick) at 300 RPM and 28° C. for 6 hours. Blastospore germination was measured by microscopic observation of the germ tube formation. Four slides were prepared from the incubated blastospore suspension using separate pipets. Germ tube formation was measured for 100 blastospores on each slide. A total of 400 blastospores were counted from each flask.

Data set [2] has the same test system. The data set is described as follows: Conidia production assay on water agar in the dark. The settings on record: 2 weeks in the dark. The protocol:
For the conidia production assay, 100 ul of the blastospore suspension was spread onto WA plates (Water Agar: 20 g/L water.) and incubated 2 weeks in the dark. Three plates were used for each treatment. The drop was spread with a sterile plastic spreader and incubated at 23° C. in the dark for 2 weeks. After two weeks, 5 ml of sterile water was added to each plate, and a sterile loop was used to release the conidia from the fungal growth. The spore suspension was drawn up with a pipet and the volume measured. The conidia concentration was measured using a hemacytometer. Our previous determination of the blastospore concentration in the suspension applied to the […] plates was used to calculate conidia production/blastospore.

The test system is the same in data set [3]. Put plainly: Viability assay, CFU spread plate after 1 hour exposure to surfactant. The note with it: in words. The protocol: as §1
For these studies, 1 ml of the previously described blastospore suspension was added to 49 ml of the foaming agents and held for 1 hour at room temperature. After the one hour exposure period, colony forming units (cfu) were determined for blastospore suspensions using standard spread plating techniques. Appropriate dilutions of blastospore suspensions were spread on SDMA (Sabouraud dextrose maltose agar) plates, 10 g Bacto peptone, 20 g Difco dextrose, 20 g Sigma maltose, and 15 g Bacto agar per 1 L water. Three plates were used for each dilution. Plates were incubated at 28° C. for 2-3 days and CFUs counted.

For “sodium alpha olefin sulfonate [Na alpha olefin sulfonate]”, the “% viability 6-hr germination” value in data set [1] is 0.0%.
For the molecule “sodium lauryl ether sulfate (2-mole) [Na Lauryl ether sulfate (2-mole)]”, the “% viability 6-hr germination” value in data set [1] is 0.0%.
As for `CCCCCCCCCCCCCCCC[N+](C)(C)C.[Br-]` [hexadecyl trimethylammonium Br, hexadecyl trimethylammonium bromide], the “% viability 6-hr germination” value in data set [1] (surfactant 0.5% (w/w), 6 hours, 28° C.) amounted to 0.0%.
For the molecule Triton x-100, the “conidia production (conidia/blastospore)” value in data set [2] (surfactant 0.5% (w/w)) worked out at 95 conidia/blastospore; in data set [2] (surfactant 1.0% (w/w)) it was 57 conidia/blastospore; in data set [2] (surfactant 2.0% (w/w)), 27 conidia/blastospore. Also, the “germination of blastospores relative to the water-only control” value in data set [1] (6-hr germination assay, in words) is recorded as “strongly inhibited”. The “cfu formation relative to the water control” value in data set [3] was “comparable or better cfu formation than the water control”.
